Laboratory results published in patent US10112918B2, “15-oxospiramilactone derivatives, preparation method and uses thereof” (Kunming Institute of Botany, The Chinese Academy of Sciences, priority 2013, dated 2018).
Where two headings read alike, the source gives them in different places.

Columns and labels:
Assay type in all cases: cell-based
[1] = tested on: A-549 (Human lung adenocarcinoma cells); experiment: MTT inhibition of tumor cell growth, A-549; conditions: Homo sapiens
Description: (§1) 1. Inoculating cells: the culture medium DMEM or RMPI1640 containing 10% fetal bovine serum was used to prepare a single cell suspension, and the cell suspension was inoculated to a 96-well plate at 5000-10000 cells per well (100 μl for each well); Adherent cells were inoculated and cultured for 12 h in advance. HL-60 (human promyelocytic leukemia cells), SMMC-7721 (human hepatoma cells), A-549 (Human lung adenocarcinoma cells), MCF-7 (human breast cancer cells), SW-480 (human colon cancer cells) were purchased from the Cell Bank of the Chinese Academy of Sciences, Shanghai.
(§2) 2. The solution of the compound to be tested (40 μM for primary screening; 5 concentrations were set for gradient re-screening for the compounds which achieve about 50% inhibition of tumor cell growth at 40 μM) was added, the final volume of each well was 200 μl, and triplicate wells were set for each test.
(§3) 3. Coloration: After culturing at 37° C. for 48 h, MTT solution (20 μl) was added to each well. After incubation for another 4 h, the culture was stopped. The supernatant in each well was pipetted and discarded, and 200 μl SDS solution (10%) was added to each well. Incubation was performed overnight (at 37° C.), to completely dissolve the crystal.
(§4) 4. Colorimetric assay: ELISA Reader (Bio-Rad 680) was used to obtain the light absorption for each well at a wavelength of 595 nm, the results were recorded. A cell growth curve was plotted with the concentration as abscissa and the cell survival percentage as ordinate. The two-point method (Reed and Muench method) was used to calculate the IC50 of the compound.

[2] = tested on: SW-480 (human colon cancer cells); experiment: MTT inhibition of tumor cell growth, SW-480; conditions: Homo sapiens
Description: as §1, §2, §3, §4

[3] = tested on: Wnt signaling pathway (Top-Flash reporter gene); experiment: Top-Flash Wnt reporter gene assay in HEK293T cells with Wnt3a conditioned medium; conditions: Homo sapiens, HEK-293T, 6 h, 6 h
Description: HEK293T cells were cultured in DMEM containing 10% fetal bovine serum (Invitrogen) at 37° C., 5% CO2. The cells were passaged every other day. The density was retained at 70˜80% during passage. L cell line (CRL-2647, purchased from the gene bank of ATCC, the US) and the control cell line (CRL-2648, purchased from ATCC, US), which stably secreted mouse Wnt3a protein, were cultured in DMEM containing 50 ug/ml G418 and 10% fetal bovine serum, at 37° C., 5% CO2. When the cells grew to a density of about 70%, the medium was replaced with DMEM containing 10% fetal bovine serum. After continuous culture for 4 days, the culture was collected and centrifuged, and the supernatant was kept so that the Wnt conditioned medium was obtained. After titration assay, the conditioned medium was quick-frozen in liquid nitrogen, and placed at −80° C. for long-term storage, so that the titer was kept unchanged.
The cells were seeded to a 48-well plate at a density of […] cells per well, and transfected 20 h later. The reagents for plasmid transfection were calculated based on the amount in each well of the 48-well plate as following: the total amount of plasmid was 125 ng/well; the plasmid was first added to a serum-free medium (25 μL/well) and mixed well; PLUS reagent (Invitrogen) was then added in an amount of 0.5 μL/well and mixed well, then stood for 15 min; Lipofectamine (Invitrogen) liposome was added in an amount of 0.5 μL/well to serum-free DMEM medium (25 μL/well), and then mixed with the solution containing the plasmid and the PLUS, and stood for 15 min. The cells were cultured in serum-free DMEM medium (100 μL/well), and the final mixture of plasmid, PLUS and Lipofectamine were added to the cells. After incubation for 3 h, the transfection was stopped by the medium containing 10% fetal bovine serum (200 μL/well).
The HEK293T cells used for activity assay of the report gene were transfected by the method as shown in 2). Activity assay of Wnt reporter gene: the amount of plasmid for transfection was 5 ng/well for TOP-flash and 5 ng/well for GFP plasmid as internal standard, with lacZ added to reach a total amount of 125 ng/well. […] After treating for 6 h, Boehringer Mannheim Luci-ferase Assay Kit was used to lyse cells (200 μL/well). 50 μL from each well was pipetted into a 96-well plate. The indensity of GFP protein in the cell lysate was measured by fluorimeter FL600 (BIO-TEK Inc. Winooski, Vt.), and taken as internal standard for cell transfection efficiency. 10 μL substrate of luciferase was then added to each well, and the activity of luciferase was measured by Micro Lumate Plus (Perkin Elmer Inc. Wellesley, Mass.) luminometer. Finally, GFP indensity was used as internal standard to calibrate the activity of luciferase, i.e. the activity of Wnt reporter gene.
Calculation of IC50 (taking the calculation of IC50 of the Wnt signaling pathway for example): background (the activity as measured in the groups treated with a conditioned medium containing DMSO only) was subtracted from the reporter gene activity as measured in the groups treated by Wnt3a conditioned medium with or without the compound to be tested at different concentrations; and the obtained value was defined as the activity of the reporter gene induced by Wnt or the residual activity of the reporter gene after adding the compound to be tested. The residual activity was normalized by the activity induced by Wnt to get the relative residual activity. Then combine with the concentrations of the compound to be tested to plot a linear graph, and a dose-effect curve was fitted based on 4-parameter logistic fit. IC50 of the Wnt signaling pathway is determined as the concentration at which the relative residual activity is 0.5.

[4] = tested on: HL-60 (human promyelocytic leukemia cells); experiment: MTT inhibition of tumor cell growth, HL-60; conditions: Homo sapiens
Description: as §1, §2, §3, §4

[5] = tested on: SMMC-7721 (human hepatoma cells); experiment: MTT inhibition of tumor cell growth, SMMC-7721; conditions: Homo sapiens
Description: as §1, §2, §3, §4

[6] = tested on: MCF-7 (human breast cancer cells); experiment: MTT inhibition of tumor cell growth, MCF-7; conditions: Homo sapiens
Description: as §1, §2, §3, §4

[7] = A549, 48 h, Table 1, 7-hydroxy derivatives of S-3
[8] = SW480, 48 h, Table 1, 7-hydroxy derivatives of S-3, read-out: IC50 SW-480
[9] = Table 7 (second), derivatives modified on 7-hydroxyl of S-3, HEK293T, Wnt3a conditioned medium, read-out: IC50 (μM), inhibitory activity on the Wnt signaling pathway
[10] = HL-60, 48 h, Table 1, 7-hydroxy derivatives of S-3
[11] = SMMC-7721, 48 h, Table 1, 7-hydroxy derivatives of S-3
[12] = MCF7, 48 h, Table 1, 7-hydroxy derivatives of S-3
[13] = A549, 48 h, Table 2, derivatives having potential Michael reaction acceptor
[14] = SW480, 48 h, Table 2, derivatives having potential Michael reaction acceptor, read-out: IC50 SW-480
[15] = HL-60, 48 h, Table 2, derivatives having potential Michael reaction acceptor
[16] = SMMC-7721, 48 h, Table 2, derivatives having potential Michael reaction acceptor
[17] = MCF7, 48 h, Table 2, derivatives having potential Michael reaction acceptor
[18] = Table 9, HEK293T, Wnt3a conditioned medium, read-out: IC50(μM), inhibitory activity on the Wnt signaling pathway

Compound | IC50 [1, 7] [µM] | IC50 [2, 8] [µM] | IC50 [3, 9] [µM] | IC50 [4, 10] [µM] | IC50 [5, 11] [µM] | IC50 [6, 12] [µM] | IC50 [1, 13] [µM] | IC50 [2, 14] [µM] | IC50 [4, 15] [µM] | IC50 [5, 16] [µM] | IC50 [6, 17] [µM] | IC50 [3, 18] [µM] | other results
C=C1C(=O)C23CC[C@H]1CC2[C@@]12CCC[C@@](C)(COC1=O)C2C[C@H]3OC(=O)c1cccs1 (stereo partly drawn) [Compound 1o] |  |  |  |  |  |  |  |  |  |  |  |  | IC50 ([1]; A549, Table 1, 7-hydroxy derivatives of S-3, 48 h): 0.49 µM; IC50 ([2]; SW480, Table 1, 7-hydroxy derivatives of S-3, 48 h, read-out: IC50 SW-480): 0.56 µM; IC50 ([3]; read-out: IC50 (μM), inhibitory activity on the Wnt signaling pathway): 9.15 ± 1.14 µM; IC50 ([4]; HL-60, Table 1, 7-hydroxy derivatives of S-3, 48 h): 0.84 µM; IC50 ([5]; SMMC-7721, Table 1, 7-hydroxy derivatives of S-3, 48 h): 0.6 µM; IC50 ([6]; MCF7, Table 1, 7-hydroxy derivatives of S-3, 48 h): 1.26 µM
C=C1C(=O)[C@]23CC[C@H]1CC2[C@@]12CCC[C@@](C)(COC1=O)C2CC3=O (stereo partly drawn) [Compound 7] |  |  | 12.1 ± 1.88 |  |  |  | 3.16 | 3.74 | 4.56 | 4.72 | 4.61 |  | IC50 ([2]; SW480, 48 h, Table 6, 7-carbonyl derivatives, read-out: IC50 SW-480, 7-carbonyl derivatives): 2.63 µM; IC50 ([3]; Table 8, HEK293T, Wnt3a conditioned medium, read-out: IC50 (μM), inhibitory activity on the Wnt signaling pathway): 12.1 µM
C=C1C(=O)[C@@]23CC[C@@H](CC2[C@@]24CCC[C@@](C)(COC2=O)C14)C(=C)C3=O (stereo partly drawn) [Compound 8] |  |  |  |  |  |  |  |  |  |  |  | 4.09 ± 0.07 | IC50 ([1]; A549, 48 h, Table 5, derivatives having double Michael reaction acceptor): 0.59 µM; IC50 ([2]; SW480, 48 h, Table 5, derivatives having double Michael reaction acceptor, read-out: IC50 SW-480): 0.66 µM; IC50 ([2]; SW480, 48 h, Table 6, double Michael reaction acceptor derivatives, read-out: IC50 SW-480, derivatives having double Michael reaction acceptor): 0.45 µM; IC50 ([4]; HL-60, 48 h, Table 5, derivatives having double Michael reaction acceptor): 2.02 µM; IC50 ([5]; SMMC-7721, 48 h, Table 5, derivatives having double Michael reaction acceptor): 0.72 µM; IC50 ([6]; MCF7, 48 h, Table 5, derivatives having double Michael reaction acceptor): 0.96 µM
C=C1C(=O)[C@]23CC[C@H]1CC2[C@@]12CCC[C@@](C)(COC1=O)C2[C@H](CN1CCOCC1)C3=O (stereo partly drawn) [Compound 9] |  |  |  |  |  |  | 2.8 | 7.77 | 4.43 | 3.53 | 3.55 | 8.56 ± 1.15 | 
C=C1C(=O)[C@]23CC[C@H]1CC2[C@@]12CCC[C@@](C)(COC1=O)C2C(CN(C)C)C3=O (stereo partly drawn) [Compound 10] |  |  |  |  |  |  | 0.83 | 1.03 | 3.41 | 0.71 | 1.18 | 9.54 ± 1.34 | 
C=C1C(=O)[C@]23CC[C@H]1CC2[C@@]12CCC[C@@](C)(COC1=O)C2[C@H](CO)C3=O (stereo partly drawn) [Compound 11] |  |  |  |  |  |  | 2.44 | 2.8 | 3.85 | 2.48 | 3.94 | 6.89 ± 0.27 | 
C=C1C(=O)[C@]23CC[C@H]1CC2[C@@]12CCC[C@@](C)(COC1=O)C2[C@H](SC)C3=O (stereo partly drawn) [Compound 12] |  |  |  |  |  |  | 3.14 | 3.71 | 4.69 | 2.41 | 4.83 | 19.8 ± 1.34 | 
C=C1C(=O)[C@]23CC[C@H]1CC2[C@@]12CCC[C@@](C)(COC1=O)C2[C@H](Br)C3=O (stereo partly drawn) [Compound 13] |  |  |  |  |  |  | 0.73 | 1.21 | 3.86 | 0.83 | 1.51 | 16.5 ± 1.16 | 

Second part, led by results:

IC50 [1, 7] [µM] | IC50 [2, 8] [µM] | IC50 [3, 9] [µM] | IC50 [4, 10] [µM] | IC50 [5, 11] [µM] | IC50 [6, 12] [µM] | IC50 [1, 13] [µM] | IC50 [2, 14] [µM] | IC50 [4, 15] [µM] | IC50 [5, 16] [µM] | IC50 [6, 17] [µM] | IC50 [3, 18] [µM] | Compound | other results
2.14 | 2.22 | 18.9 ± 2.48 | 4.01 | 3.05 | 3.11 |  |  |  |  |  |  | C=C1C(=O)C23CC[C@H]1CC2[C@@]12CCC[C@@](C)(COC1=O)C2C[C@H]3OC(=O)c1ccco1 (stereo partly drawn) [Compound 1n] | 
0.79 | 2.16 | 18.6 ± 1.26 | 1.24 | 1.79 | 3.4 |  |  |  |  |  |  | C=C1C(=O)C23CC[C@H]1CC2[C@@]12CCC[C@@](C)(COC1=O)C2C[C@H]3OC(=O)/C=C/c1ccccc1 (stereo partly drawn) [Compound 1p] | 
4.17 | 3.43 | 15.1 ± 2.89 | 5.15 | 10.5 | 3.82 |  |  |  |  |  |  | C=C1C(=O)C23CC[C@H]1CC2[C@@]12CCC[C@@](C)(COC1=O)C2C[C@H]3OS(C)(=O)=O (stereo partly drawn) [Compound 1q] | 
0.49 | 1.17 | 8.92 ± 0.98 | 0.58 | 0.57 | 2.06 |  |  |  |  |  |  | C=C1C(=O)C23CC[C@H]1CC2[C@@]12CCC[C@@](C)(COC1=O)C2C[C@H]3OS(=O)(=O)Cc1ccccc1 (stereo partly drawn) [Compound 1r] | 
2.69 | 2.89 | 12.4 ± 1 | 3.53 | 3.83 | 4.18 |  |  |  |  |  |  | C=C1C(=O)C23CC[C@H]1CC2[C@@]12CCC[C@@](C)(COC1=O)C2C[C@H]3OS(=O)(=O)c1ccccc1 (stereo partly drawn) [Compound 1s] | 
2.94 | 1.91 | 14.4 ± 2.28 | 3.36 | 3.64 | 3.19 |  |  |  |  |  |  | C=C1C(=O)[C@]23CC[C@H]1CC2[C@@]12CCC[C@@](C)(COC1=O)C2C[C@H]3OS(=O)(=O)c1ccc(Cl)cc1 (stereo partly drawn) [Compound 1t] | 
6.69 | 18.4 | > 60 | 6.63 | 23.4 | 9.05 |  |  |  |  |  |  | C=C1C(=O)[C@]23CC[C@H]1CC2[C@@]12CCC[C@@](C)(COC1=O)C2C[C@H]3S(=O)(=O)c1ccccc1[N+](=O)[O-] (stereo partly drawn) [Compound 1u] | 
16.6 | 14.7 | > 60 | 9.64 | 26.9 | 11.1 |  |  |  |  |  |  | C=C1C(=O)[C@]23CC[C@H]1CC2[C@@]12CCC[C@@](C)(COC1=O)C2C[C@@H]3S(=O)(=O)c1ccccc1[N+](=O)[O-] (stereo partly drawn) [Compound 1v] | 
